Assay results from patent US20040019024A1, “Use of vitamin d derivatives as bone resorption inhibitors” (priority 2000, published 2004).
Marks after values point to notes of the source that are not given here.

Assays:
[1] = tested on: bone marrow cells of normal persons; assay: Osteoclast formation induced by 1α,25-dihydroxyvitamin D3 in normal human bone marrow cultures; assay type: cell-based; details: for osteoclast formation (average number of cells ± S.D.): normal marrow
Excerpt: Mononuclear cells were fractionated from bone marrow cells of healthy normal persons according to a method of Kurihara et al. (Endocrinology, vol. 126, 2733-2741 (1990)). Briefly, bone marrow cells were obtained from normal persons, a mononuclear cell fraction was collected by Hypaque-Ficoll density gradient centrifugation, the cell fraction was washed with α-Minimal Essential Media (α-MEM) 3 times, and the cells dispersed in α-MEM containing 10% fetal bovine serum. This mononuclear cell suspension was seeded in 100-mm tissue culture plates, the culture plate was kept for 90 minutes at 37° C. in a 4% CO2-air atmosphere, and the non-adherent cells were collected. The non-adherent mononuclear cells were dispersed into α-MEM culture medium containing 20% horse serum at 10^6 cells/ml, the cell suspension was seeded into 96-well multi plates at 100 μl/well. The capacity of the compound 11 (23S isomer) to inhibit osteoclast formation induced by 1α,25-dihydroxyvitamin D3 was evaluated as follows: Various concentrations of 1α,25-dihydroxyvitamin D3, various concentrations of compound 11 (23S isomer) or a combination of 10^−8 M 1α,25-dihydroxyvitamin D3 solution and various concentrations of compound 11 (23S isomer) solution were added to each well. The culture medium was replaced twice weekly and the cultures continued for 3 weeks at 37° C. in an atmosphere of 4% CO2-air. Osteoclasts that formed were identified by their capacity to bind the 23C6 antibody. The nuclei were counter stained with methyl green. Cells that reacted with the 23C6 antibody and had 3 or more nuclei were scored as osteoclasts.

vitamin D deficient rats = assay: Bone resorption (serum calcium) induced by 1α,25-dihydroxyvitamin D3 in vitamin D deficient rats; assay type: in vivo, Wistar rats
Protocol: Four-week-old male Wistar rats purchased from Japan SLC (Shizuoka, in Japan) were used. The animals were kept in wire-net cages (three animals in a cage) and raised for 7 weeks with free access to a vitamin D-deficient diet (Ca, 0.0036%; P, 0.3%; Harlan Taklad Research Diet, Madison, Wis., U.S.A.) and drinking water (well water treated with hypochlorite of […]±0.2 ppm). Temperature was kept at 23±1° C. and the humidity at 55±10%. Five animals were used for each experimental group. The control animals received intravenously administered solvent (5% ethanol-0.1% Triton X-100-physiological saline solution), and the experimental animals were intravenously administered 1α,25-dihydroxyvitamin D3 at a dose of 0.25 μg/kg. For animals receiving vitamin D derivatives, compound 11 (23S isomer) was administered intravenously at a dose of 2 μg/kg, 10 μg/kg or 50 μg/kg, or the compound 11 (23S isomer) with or without 1α,25-dihydroxyvitamin D3 at a dose of 0.25 μg/kg. The volume was 2 ml/kg for each animal. 24 hours after administration, a blood sample was taken out from abdominal descending aorta under ether anesthesia, the serum was collected according to conventional methods, and the calcium concentration in the serum was measured. The calcium concentrations were measured according to OCPC-method (Am. J. Clin. Pathol., vol. 45, 290-296 (1966)) with an autoanalyzer (type 7070, manufactured by Hitachi Seisakusho).

[2] = tested on: bone marrow cells of Paget's disease of bone patients; assay: Osteoclast formation induced by 1α,25-dihydroxyvitamin D3 in bone marrow cultures from Paget's disease of bone patients; assay type: cell-based, human; details: for osteoclast formation (average number of cells ± S.D.): Paget's marrow
Excerpt: Mononuclear cells were fractionated from bone marrow cells of healthy normal persons according to a method of Kurihara et al. (Endocrinology, vol. 126, 2733-2741 (1990)). Briefly, bone marrow cells were obtained from normal persons, a mononuclear cell fraction was collected by Hypaque-Ficoll density gradient centrifugation, the cell fraction was washed with α-Minimal Essential Media (α-MEM) 3 times, and the cells dispersed in α-MEM containing 10% fetal bovine serum. This mononuclear cell suspension was seeded in 100-mm tissue culture plates, the culture plate was kept for 90 minutes at 37° C. in a 4% CO2-air atmosphere, and the non-adherent cells were collected. The non-adherent mononuclear cells were dispersed into α-MEM culture medium containing 20% horse serum at 10^6 cells/ml, the cell suspension was seeded into 96-well multi plates at 100 μl/well.
The capacity of the compound 11 (23S isomer) to inhibit osteoclast formation induced by 1α,25-dihydroxyvitamin D3 was evaluated as follows: Various concentrations of 1α,25-dihydroxyvitamin D3, various concentrations of compound 11 ([…]) solution were added to each well. The culture medium was replaced twice weekly and the cultures continued for 3 weeks at 37° C. in an atmosphere of 4% CO2-air. Osteoclasts that formed were identified by their capacity to bind the 23C6 antibody. The nuclei were counter stained with methyl green. Cells that reacted with the 23C6 antibody and had 3 or more nuclei were scored as osteoclasts.
Bone marrow cells were obtained from involved bones of patients with Paget's disease of bone and processed and cultured as described above for normal bone cells. The cultures were treated in an identical manner with 1α,25-dihydroxyvitamin D3 and/or compound 11 (23S isomer) as described in Example 1.
Bone marrow cultures were performed as described in Example 1, with the exception that different types of vitamin D antagonists were added to at varying concentrations to bone marrow cultures stimulated with 1α,25-dihydroxyvitamin D3. The bone marrow cells were taken from involved bones of patients with Paget's disease of bone and the cultures were performed as described in Example 2. There are two diastereoisomers, based on the asymmetric carbon at the 23 position, in compounds 13 and 16. The isomer having the shorter retention time on reverse phase HPLC analysis was the more polar isomer and the isomer having the longer retention time was the less polar isomer.

C=C1CC(CC(C)C2CCC3C(=CC=C4CC(O)CC(O)C4=C)CCCC32C)OC1=O [compound 11 (23S isomer), (23S)-25-Dehydro-1α,25-Dihydroxyvitamin D3-26, 23-Lactone]
osteoclast formation (average number of cells ± S.D.) ([1]; 10^−8 M 1α,25-dihydroxyvitamin D3 + compound 10^−6 M): 20 ± 7 cells
osteoclast formation (average number of cells ± S.D.) ([1]; 10^−8 M 1α,25-dihydroxyvitamin D3 + compound 10^−7 M): 33 ± 16 cells
osteoclast formation (average number of cells ± S.D.) ([1]; 10^−8 M 1α,25-dihydroxyvitamin D3 + compound 10^−8 M): 44 ± 8 cells
osteoclast formation (average number of cells ± S.D.) ([1]; 10^−8 M 1α,25-dihydroxyvitamin D3 + compound 10^−9 M): 55 ± 12 cells
osteoclast formation (average number of cells ± S.D.) ([1]; 10^−8 M 1α,25-dihydroxyvitamin D3 + compound 10^−10 M): 80 ± 5 cells
osteoclast formation (average number of cells ± S.D.) ([1]; 10^−8 M 1α,25-dihydroxyvitamin D3 + compound 10^−11 M): 85 ± 8 cells
osteoclast formation (average number of cells ± S.D.) ([1]; compound alone, 10^−6 M, 3 weeks): 0 ± 0 cells
osteoclast formation (average number of cells ± S.D.) ([1]; compound alone, 10^−7 M, 3 weeks): 0 ± 1 cells
osteoclast formation (average number of cells ± S.D.) ([1]; compound alone, 10^−8 M, 3 weeks): 3 ± 2 cells
osteoclast formation (average number of cells ± S.D.) ([1]; compound alone, 10^−9 M, 3 weeks): 5 ± 1 cells
osteoclast formation (average number of cells ± S.D.) ([1]; compound alone, 10^−10 M, 3 weeks): 9 ± 5 cells
osteoclast formation (average number of cells ± S.D.) ([1]; compound alone, 10^−11 M, 3 weeks): 17 ± 4 cells
induction of osteoclast formation by the compound alone (in words) ([1]; normal marrow cultures): did not induce osteoclast formation
serum Ca concentration (vitamin D deficient rats; 0.25 μg/kg 1α,25-dihydroxyvitamin D3 + compound 2 μg/kg intravenously, 24 hours): 5.31 ± 0.22 mg/100 ml serum
serum Ca concentration (vitamin D deficient rats; 0.25 μg/kg 1α,25-dihydroxyvitamin D3 + compound 10 μg/kg intravenously, 24 hours): 4.97 ± 0.18^a mg/100 ml serum
serum Ca concentration (vitamin D deficient rats; 0.25 μg/kg 1α,25-dihydroxyvitamin D3 + compound 50 μg/kg intravenously, 24 hours): 4.72 ± 0.21^b mg/100 ml serum
bone resorption induced by 1α,25-dihydroxyvitamin D3 (in words) (vitamin D deficient rats; 0.25 μg/kg 1α,25-dihydroxyvitamin D3 simultaneously with 2, 10 or 50 μg/kg compound): suppressed
serum Ca concentration (vitamin D deficient rats; compound alone, 2 μg/kg intravenously, 24 hours after administration): 4.61 ± 0.12 mg/100 ml serum
serum Ca concentration (vitamin D deficient rats; compound alone, 10 μg/kg intravenously, 24 hours after administration): 4.67 ± 0.11 mg/100 ml serum
serum Ca concentration (vitamin D deficient rats; compound alone, 50 μg/kg intravenously, 24 hours after administration): 4.65 ± 0.18 mg/100 ml serum
serum calcium concentration after compound alone (in words) (vitamin D deficient rats; even at a dose of 50 μg/kg, 24 hours after administration): increased serum calcium concentrations were not observed
osteoclast formation (average number of cells ± S.D.) ([2]; 10^−10 M 1α,25-dihydroxyvitamin D3 + compound 10^−6 M): 1 ± 1 cells
osteoclast formation (average number of cells ± S.D.) ([2]; 10^−10 M 1α,25-dihydroxyvitamin D3 + compound 10^−7 M, listed as compound 11 (235 isomer)): 14 ± 1 cells
osteoclast formation (average number of cells ± S.D.) ([2]; 10^−10 M 1α,25-dihydroxyvitamin D3 + compound 10^−8 M, listed as compound 11 (235 isomer)): 63 ± 5 cells
osteoclast formation (average number of cells ± S.D.) ([2]; 10^−10 M 1α,25-dihydroxyvitamin D3 + compound 10^−9 M): 125 ± 5 cells
osteoclast formation (average number of cells ± S.D.) ([2]; 10^−10 M 1α,25-dihydroxyvitamin D3 + compound 10^−10 M): 155 ± 6 cells
osteoclast formation (average number of cells ± S.D.) ([2]; 10^−10 M 1α,25-dihydroxyvitamin D3 + compound 10^−11 M): 170 ± 13 cells
induction of osteoclast formation by the compound alone (in words) ([2]; Paget's marrow cultures): did not induce osteoclast formation
osteoclast formation (average number of cells ± S.D.) ([2]; compound alone, 10^−6 M): 1 ± 1 cells
osteoclast formation (average number of cells ± S.D.) ([2]; compound alone, 10^−7 M): 8 ± 2 cells
osteoclast formation (average number of cells ± S.D.) ([2]; compound alone, 10^−8 M): 9 ± 3 cells
osteoclast formation (average number of cells ± S.D.) ([2]; compound alone, 10^−9 M): 16 ± 2 cells
osteoclast formation (average number of cells ± S.D.) ([2]; compound alone, 10^−10 M): 20 ± 4 cells
osteoclast formation (average number of cells ± S.D.) ([2]; compound alone, 10^−11 M): 29 ± 5 cells
effect on basal osteoclast formation (in words) ([2]; compound alone, Paget's marrow cultures): inhibited basal osteoclast formation
